Laboratory results taken from patent publication US7745442B2, “Methods of reducing risk of infection from pathogens” (priority 2003, dated 2010).

Biological target: T1, airway epithelial sodium currents (sodium channel) in canine bronchial epithelia (Canis lupus familiaris, UniProt A0A8I3MKE6+A0A8I3Q679+Q95165)
T1 construct: endogenous in cells; host or cells: primary canine bronchial epithelial cells from freshly excised airways, cultured at air-liquid interface on Snapwell inserts
Assay: In vitro sodium channel blocking activity (short circuit current, Ussing chambers) in canine bronchial epithelia
Type: cell-based
Details: potency in canine bronchial epithelia; for Fold Amiloride*: relative to amiloride (Formula III compounds), value ± spread
Description: One assay used to assess mechanism of action and/or potency of the compounds of (1), (II), and (HI) involves the determination of lumenal drug inhibition of airway epithelial sodium currents measured under short circuit current (ISC) using airway epithelial monolayers mounted in Ussing chambers. Cells obtained from freshly excised human, dog, sheep or rodent airways are seeded onto porous 0.4 micron Snapwell™ Inserts (CoStar), cultured at air-liquid interface (ALI) conditions in hormonally defined media, and assayed for sodium transport activity (ISC) while bathed in Krebs Bicarbonate Ringer (KBR) in Using chambers. All test drug additions are to the lumenal bath with half-log dose addition protocols (from 1×10^−11 M to 3×10^−5 M), and the cumulative change in ISC (inhibition) recorded. All drugs are prepared in dimethyl sulfoxide as stock solutions at a concentration of 1×10^−2 M and stored at −20° C. Eight preparations are typically run in parallel; two preparations per run incorporate amiloride and/or benzamil as positive controls. After the maximal concentration (5×10^−5 M) is administered, the lumenal bath is exchanged three times with fresh drug-free KBR solution, and the resultant ISC measured after each wash for approximately 5 minutes in duration. Reversibility is defined as the percent return to the baseline value for sodium current after the third wash. All data from the voltage clamps are collected via a computer interface and analyzed off-line.
Dose-effect relationships for all compounds are considered and analyzed by the Prism 3.0 program. IC50 values, maximal effective concentrations, and reversibility are calculated and compared to amiloride and benzamil as positive controls.
Amiloride and/or a compound 33 was also tested in this assay as a positive control. The results for the compounds of the present invention are reported as fold-enhancement values relative to amiloride.
Amiloride was also tested in this assay as a positive control. The results for the compounds of the present invention are reported as fold-enhancement values relative to amiloride.

T1 sequence (A0A8I3Q679 entry or part of it): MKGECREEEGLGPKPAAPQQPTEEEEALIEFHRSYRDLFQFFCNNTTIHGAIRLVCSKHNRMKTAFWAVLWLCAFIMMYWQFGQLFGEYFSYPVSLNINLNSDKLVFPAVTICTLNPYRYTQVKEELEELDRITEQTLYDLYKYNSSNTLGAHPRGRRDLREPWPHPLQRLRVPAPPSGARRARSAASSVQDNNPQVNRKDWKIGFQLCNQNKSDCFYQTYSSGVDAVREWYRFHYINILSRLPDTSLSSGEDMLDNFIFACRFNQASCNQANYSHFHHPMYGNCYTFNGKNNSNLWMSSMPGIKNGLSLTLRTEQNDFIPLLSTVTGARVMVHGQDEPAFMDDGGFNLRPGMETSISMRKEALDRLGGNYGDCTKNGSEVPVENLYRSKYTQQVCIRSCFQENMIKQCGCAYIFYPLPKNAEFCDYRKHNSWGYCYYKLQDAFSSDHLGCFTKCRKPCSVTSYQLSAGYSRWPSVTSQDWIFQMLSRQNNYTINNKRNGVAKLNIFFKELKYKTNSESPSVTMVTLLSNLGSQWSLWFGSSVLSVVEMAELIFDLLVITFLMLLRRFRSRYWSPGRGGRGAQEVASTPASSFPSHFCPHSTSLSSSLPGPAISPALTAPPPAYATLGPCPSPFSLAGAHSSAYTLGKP
T1 sequence (A0A8I3MKE6 entry or part of it): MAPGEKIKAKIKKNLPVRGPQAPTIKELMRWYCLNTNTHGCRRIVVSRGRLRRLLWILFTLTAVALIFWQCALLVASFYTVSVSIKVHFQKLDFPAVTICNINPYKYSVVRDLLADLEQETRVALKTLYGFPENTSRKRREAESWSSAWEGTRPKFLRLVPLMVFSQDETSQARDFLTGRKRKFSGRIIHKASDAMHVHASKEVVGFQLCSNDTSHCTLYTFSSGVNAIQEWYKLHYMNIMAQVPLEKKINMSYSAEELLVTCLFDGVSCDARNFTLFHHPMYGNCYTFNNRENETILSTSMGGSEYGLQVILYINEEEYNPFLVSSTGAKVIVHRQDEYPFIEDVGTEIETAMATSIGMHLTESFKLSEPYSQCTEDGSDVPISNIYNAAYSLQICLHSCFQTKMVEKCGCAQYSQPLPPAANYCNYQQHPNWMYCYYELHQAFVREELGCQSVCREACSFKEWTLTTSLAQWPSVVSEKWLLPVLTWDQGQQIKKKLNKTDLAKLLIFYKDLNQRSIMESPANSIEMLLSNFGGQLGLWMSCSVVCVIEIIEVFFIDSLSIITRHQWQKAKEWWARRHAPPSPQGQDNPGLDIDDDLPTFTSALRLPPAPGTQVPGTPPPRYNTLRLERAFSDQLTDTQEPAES
T1 sequence (Q95165 whole entry): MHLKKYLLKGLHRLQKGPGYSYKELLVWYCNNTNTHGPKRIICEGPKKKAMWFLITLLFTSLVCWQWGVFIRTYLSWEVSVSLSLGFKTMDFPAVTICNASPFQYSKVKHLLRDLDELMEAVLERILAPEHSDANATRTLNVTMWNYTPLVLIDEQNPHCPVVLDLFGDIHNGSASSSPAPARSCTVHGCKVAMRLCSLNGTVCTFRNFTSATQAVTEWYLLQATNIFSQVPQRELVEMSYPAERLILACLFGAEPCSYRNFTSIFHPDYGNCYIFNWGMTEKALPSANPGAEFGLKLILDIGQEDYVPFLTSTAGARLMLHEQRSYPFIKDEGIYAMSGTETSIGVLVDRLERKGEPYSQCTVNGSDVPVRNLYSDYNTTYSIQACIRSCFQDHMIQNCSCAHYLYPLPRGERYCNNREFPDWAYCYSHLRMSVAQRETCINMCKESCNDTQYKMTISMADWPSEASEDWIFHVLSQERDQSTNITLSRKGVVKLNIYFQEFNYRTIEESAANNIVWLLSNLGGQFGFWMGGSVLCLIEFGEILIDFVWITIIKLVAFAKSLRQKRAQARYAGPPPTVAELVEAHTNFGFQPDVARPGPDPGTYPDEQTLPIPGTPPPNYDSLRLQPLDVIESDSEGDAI

Compound: Cl.N=C(NCCCCc1ccc(O)cc1)NC(=O)c1nc(Cl)c(N)nc1N [compound V, 4-(4-hydroxyphenyl)butylamidino-3,5-diamino-6-chloropyrazinecarboxamide hydrochloride]
- Fold Enhancement Over Amiloride (relative to amiloride (Formula I compounds, Tables 1-4)): 50.3 fold

Compound: Cl.N=C(NCCCCc1ccc(OCC(O)CO)cc1)NC(=O)c1nc(Cl)c(N)nc1N (centres unmarked) [compound 33, 4-[4-(2,3-Dihydroxypropyloxyl)phenyl]butylamidino-3,5-diamino-6-chloropyrazinecarboxamide hydrochloride]
- Fold Amiloride* (number in brackets not explained (presumably n), listed as drawing 52: O CH2 CHOH CH2 OH, hydrochloride): 51.95 (50) fold
- Fold Amiloride* (number in brackets not explained (presumably n), listed as drawing 53: O CH2 CHOH CH2 OH, hydrochloride): 51.95 (79) fold
- Fold Amiloride* (number in brackets not explained, Position=Para, hydrochloride): 51.55 (79) fold

Compound: Cl.Cl.N=C(N)NCCOc1ccc(CCCCNC(=N)NC(=O)c2nc(Cl)c(N)nc2N)cc1 [compound 9518, N-(3,5-diamino-6-chloropyrazine-2-carbonyl)-N′-{4-[4-(2-guanidinoethoxy)-phenyl]butyl}guanidine dihydrochloride]
- Fold Amiloride* (number in brackets not explained): 120.6 ± 60.8 (11) fold
